The results in this text go back to PubChem BioAssay (NCI).

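How tested: cells in 96-well plates exposed to compound for 48 hours at five concentrations. Definition used: TGI = concentration required for complete inhibition of growth.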 Where only a bound is given, the exact number is not on record here.

Test in all cases: NCI-60 cell line screen, 48 h
Assay [1] has as its system CAKI-1 renal.
Assay [2] relates to COLO 205 colon.
Assay [3] relates to EKVX NSCLC.
Assay [4] has as its system HCC-2998 colon.
In assay [5] the test system is HL-60(TB) leukemia.
For assay [6], the system named is HS 578T breast.
Assay [7] relates to HT29 colon.
Assay [8] has as its system K-562 leukemia.
In assay [9] the test system is LOX IMVI melanoma.
Assay [10] concerns MDA-MB-435.
For assay [11], the system named is MOLT-4 leukemia.
Assay [12] concerns NCI/ADR-RES ovarian.
Assay [13] concerns OVCAR-8 ovarian.
Assay [14] relates to SF-539 CNS.
Assay [15] has as its system SR leukemia.
Assay [16] relates to SW-620 colon.
Assay [17] has as its system TK-10 renal.
The subject of assay [18] is U251 CNS.
Assay [19] deals with RPMI-8226 leukemia.
Assay [20] concerns SF-268 CNS.

With `Cc1ccc(Cc2n[nH]c(=O)[nH]2)cc1`, the TGI in assay [1], in assay [2], in assay [3], in assay [4], in [5] and in assay [6] was greater than 100 µM in each case. Further, the TGI in assay [7], in [8], in [9], in [10], in assay [11] and in assay [12] was greater than 100 µM throughout. The TGI in [13], in assay [14], in assay [15], in assay [16], in [17] and in assay [18] was greater than 100 µM in each case.

With `CC1=NN(c2nc(N)nc(/C(C#N)=C/c3ccccc3O)n2)C(C)(C)C1`, the TGI in assay [1] amounted to 36.9 µM; in assay [2], 31.5 µM; in assay [3] it was 37.5 µM; in assay [4], 36.5 µM; in assay [5], 65.3 µM; in [6], 35.4 µM. Besides, the TGI was 42.6 µM in assay [7]; greater than 100 µM in assay [8]; 32.9 µM in assay [10]; greater than 100 µM in assay [11]; 47 µM in assay [12]; 61.6 µM in [13]. Besides, the TGI in assay [19] was 36.2 µM; in assay [20], 37.1 µM; in [14], 30.6 µM; in assay [15], greater than 100 µM; in assay [17], 58.4 µM; in assay [18] it was 41.3 µM.

On to `C=C(C)[C@@H]1CCC2=C[C@@H](OC2=O)[C@@H](C(=C)C)C2=CC(C(=O)O)=C(C1)O2`, for which the TGI in [1], in assay [2], in assay [3], in [4], in assay [5] and in assay [6] was greater than 100 µM in each case. Besides, the TGI in [7], in assay [8], in assay [9], in assay [10], in assay [11] and in assay [12] was greater than 100 µM throughout. Besides, the TGI in assay [13], in [19], in [20], in [14], in assay [16] and in assay [17] was greater than 100 µM throughout.

Regarding `CCN(CC)c1ccc2cc(C(N)=O)c(=N)oc2c1`, the TGI in assay [1] is greater than 100 µM; in assay [2], greater than 100 µM; in assay [4], 57.2 µM; in assay [5] it was greater than 100 µM; in [6], 45.8 µM; in assay [7], greater than 100 µM. For the same compound, the TGI in assay [8], in assay [9], in assay [10], in assay [11], in assay [12] and in assay [13] was greater than 100 µM in each case. For the same compound, the TGI in assay [19], in assay [20], in [14], in [15], in assay [16] and in [18] was greater than 100 µM in each case.

Regarding `N=C(N)c1ccc(/C=C/c2ccc(C(=N)N)cc2)cc1`, the TGI in [1], in assay [3], in assay [4], in assay [6], in [7] and in [8] was greater than 100 µM throughout. Moreover, the TGI in assay [9], in [10], in assay [11], in assay [12], in assay [13] and in assay [20] was greater than 100 µM each time. Also, the TGI in assay [15] was greater than 100 µM; in assay [16], greater than 100 µM; in assay [17], 65.2 µM; in [18] it was greater than 100 µM.

`CN(C)CCNc1ccc([N+](=O)[O-])c2sc3ccccc3c(=O)c12`: the TGI in assay [2] stood at 14.3 µM; in [3], 25.2 µM; in [4], 13.1 µM; in [5] it was 12.5 µM; in assay [6] it was 38.8 µM; in [7], 32.1 µM. For the same compound, the TGI was greater than 100 µM in assay [8]; 27.4 µM in assay [10]; greater than 100 µM in [11]; 54.2 µM in assay [12]; 19.9 µM in [13]; 7.52 µM in [19]. Moreover, the TGI in assay [20] is 48.8 µM; in assay [14], 13.7 µM; in [15] it was 22.9 µM; in assay [16] it was greater than 100 µM; in assay [17], greater than 100 µM; in assay [18] it was greater than 100 µM.

With `C1=CC2(C=CC13O[C@H](C1CCCCC1)[C@@H](C1CCCCC1)O3)O[C@H](C1CCCCC1)[C@@H](C1CCCCC1)O2`, the TGI in assay [1], in assay [2], in [5], in assay [6], in [7] and in assay [8] was greater than 50 µM in each case. Further, the TGI in assay [9], in assay [10], in assay [11], in [12], in assay [13] and in [19] was greater than 50 µM throughout. Further, the TGI in [20], in [14], in assay [15], in assay [16], in [17] and in assay [18] was greater than 50 µM in each case.
